This test addresses Prothrombin (Homo sapiens) (UniProt P00734). Briefly: Binding affinity for human alpha-thrombin.
With `CCCc1cc(Cc2c(-c3ccc(OCCN4CCCC4)cc3)sc3ccccc23)ccc1OCCN1CCCC1`, the K ass is 1.02e+06 l M-1.
In the case of `CC(=O)Nc1cc(Cc2c(-c3ccc(OCCN4CCCC4)cc3)sc3ccccc23)ccc1OCCN1CCCC1`, the K ass was 310000 l M-1.
With `FC(F)(F)c1cc(Cc2c(-c3ccc(OCCN4CCCC4)cc3)sc3ccccc23)ccc1OCCN1CCCC1`, the K ass is 2.4e+06 l M-1.
Consider `Brc1cc(OCCN2CCCC2)ccc1Cc1c(-c2ccc(OCCN3CCCC3)cc2)sc2ccccc12`, for which the K ass was 270000 l M-1.
As to `Fc1cc(Cc2c(-c3ccc(OCCN4CCCC4)cc3)sc3ccccc23)ccc1OCCN1CCCC1`, the K ass was 4.87e+06 l M-1.
With `Cc1cc(Cc2c(-c3ccc(OCCN4CCCC4)cc3)sc3ccccc23)ccc1OCCN1CCCC1`, the K ass was 2.42e+07 l M-1.
Regarding `CCc1cc(Cc2c(-c3ccc(OCCN4CCCC4)cc3)sc3ccccc23)ccc1OCCN1CCCC1`, the K ass was 7.27e+06 l M-1.
Consider `CCNc1cc(Cc2c(-c3ccc(OCCN4CCCC4)cc3)sc3ccccc23)ccc1OCCN1CCCC1`, for which the K ass is 290000 l M-1.
With `Oc1cc(Cc2c(-c3ccc(OCCN4CCCC4)cc3)sc3ccccc23)ccc1OCCN1CCCC1`, the K ass is 1.1e+06 l M-1.
Take `COc1cc(Cc2c(-c3ccc(OCCN4CCCC4)cc3)sc3ccccc23)ccc1OCCN1CCCC1`: the K ass was 1.22e+07 l M-1.
As to `CS(=O)(=O)Nc1cc(Cc2c(-c3ccc(OCCN4CCCC4)cc3)sc3ccccc23)ccc1OCCN1CCCC1`, the K ass is 410000 l M-1.
As for `Nc1cc(Cc2c(-c3ccc(OCCN4CCCC4)cc3)sc3ccccc23)ccc1OCCN1CCCC1`, the K ass is 1.1e+06 l M-1.
To `Brc1cc(Cc2c(-c3ccc(OCCN4CCCC4)cc3)sc3ccccc23)ccc1OCCN1CCCC1` belongs 2.75e+07 l M-1; to `CCCCc1cc(Cc2c(-c3ccc(OCCN4CCCC4)cc3)sc3ccccc23)ccc1OCCN1CCCC1`, 420000 l M-1.
In the case of `O=S(=O)(Nc1cc(Cc2c(-c3ccc(OCCN4CCCC4)cc3)sc3ccccc23)ccc1OCCN1CCCC1)c1ccccc1`, the K ass is 220000 l M-1.
As to `O=[N+]([O-])c1cc(Cc2c(-c3ccc(OCCN4CCCC4)cc3)sc3ccccc23)ccc1OCCN1CCCC1`, the K ass was 1.02e+07 l M-1.

Source of the values: ChEMBL document CHEMBL1130966, “Dibasic benzo[b]thiophene derivatives as a novel class of active site directed thrombin inhibitors. 2. Exploring interactions at the proximal (S2) binding site” (Bioorg Med Chem Lett, 1998).
